# In patent publication US4434788A, “Enhancer of anti-tumor effect” (Yamasa Shoyu Kabushiki Kaisha, priority 1980, dated 1984):
# What was measured:
# LD50 (i.p.) of 3'-dAdo = conditions: in vivo, ip
# EMT-6 tumors = test: Radiosensitizing effect on EMT-6 tumor in mouse, cure percentage and TCD50; type: in vivo, BALB/c-strain female mice; conditions: 100 mg/kg i.p. after irradiation; for Cure number/Number treated / Cure percentage: >90 days
# Procedure: EMT-6 tumor cells (2×10^5) were inoculated intradermally into the right thighs of BALB/c-strain female mice (8 weeks old). When the tumor sizes reached 5.5 to 8.0 mm after inoculation of the tumor cells, irradiation was locally carried out with 1,000 rad to 2,700 rad of 32 MeV electron beam under no anesthesia, and thereafter 3'-dAdo and 3'-dGuo, each dissolved in physiological saline solution, were administered intraperitoneally in a dose of 100 mg/kg. After the treatments, observation was continued for longer than 90 days, and the cure percentages were determined for comparison with the control group. [formula]
# (2) TCD50 =50% Tumor control dose
# [1] = test system: potentially lethal damage repair; test: PLDR-inhibiting / radiosensitizing activity (general statements)
# adenosinedeaminase = conditions: in bodies; cited from earlier work
smiles,measurement,setting,value
"Nc1ncnc2c1ncn2[C@@H]1O[C@H](CO)C[C@H]1O [3'-dAdo, 3'-deoxyadenosine, reference compound]",LD50,LD50 (i.p.) of 3'-dAdo,280 mg/kg
same,TCD50 (50% Tumor control dose),"EMT-6 tumors; radiation doses given in rad, control 2400",1600 rad
same,TCD50 ratio,EMT-6 tumors; relative to control 1.0,0.67
same,Cure number/Number treated,"EMT-6 tumors; 1,000 rad, control 1/23",3/18
same,Cure percentage,"EMT-6 tumors; 1,000 rad, control 4%",17%
same,Cure number/Number treated,"EMT-6 tumors; 1,500 rad, control 8/44",14/29
same,Cure percentage,"EMT-6 tumors; 1,500 rad, control 18%",48%
same,Cure number/Number treated,"EMT-6 tumors; 2,100 rad, control 9/24",11/14
same,Cure percentage,"EMT-6 tumors; 2,100 rad, control 38%",79%
same,Cure number/Number treated,"EMT-6 tumors; 2,700 rad, control 13/28",10/15
same,Cure percentage,"EMT-6 tumors; 2,700 rad, control 47%",67%
same,Radiosensitizing activity,[1],excellent radiosensitizing activities
same,PLDR-inhibiting ability of 3'-dAdo in combination with 2'-deoxycoformycin,[1]; combination of 3'-dAdo with 2'-deoxycoformycin,can be strengthened and prolonged
same,Inactivation by adenosinedeaminase,adenosinedeaminase,readily inactivated by adenosinedeaminase in bodies
